In ChEMBL document CHEMBL3507680, “University of Dundee, Gates Library screen for HepG2 cell viability”:

test: Human HepG2 cell viability assay in 384 well format; assay type: toxicity, cell-based; design: dose 125 nL, time 70.5 hour; concentration not given beside the values; conditions: HepG2 cells, read-out: Inhibition

Point of comparison: `O=c1c2c(ncn1CCCO)nc1n2CCC1`, cytotoxicity at 70.5 h -1.36%. Against it:
- CCn1c(=O)n(CC)c2cc(S(N)(=O)=O)ccc21 — lower, -2.33%
- CC(C)(C)NC(=O)COc1ccc(CNCc2ccccn2)cc1 — higher, 25.3%
- O=c1cc(CN2CCCC2)nc2n1CCCN(Cc1ccsc1)C2 — lower, -17.6%
- Cn1cc(CN2CC[C@H]3OCC[C@@H](C(=O)N4CCCCO4)[C@@H]3C2)cn1 — lower, -15.8%
- CCc1ncnc2c1CCN(C(=O)Cc1ccccn1)CC2 — lower, -19.9%
- O=C1COC2(CCN(Cc3ccccn3)CC2)CN1CC1CC1 — higher, -0.792%
- Cn1cnc2c1C(COCC1CC1)CN(Cc1ccsc1)C2 (stereo not given) — higher, 5.05%
- O=C(Cc1ccsc1)NCC1OCCc2cn(CC3CC3)nc21 (stereo not given) — lower, -2.21%
- Cn1cc(C[C@H]2[C@@H](O)CCN2C(=O)C2CC=CC2)cn1 — higher, 7.47%
- CNC(=O)[C@H]1C[C@@H]2CN(C(=O)Nc3ccc(F)cc3)C[C@H]1O2 — higher, -0.584%
- O=C(Nc1ccc(F)cc1)N1C[C@H]2C[C@H](C(=O)N3CCOCC3)[C@@H](C1)O2 — lower, -1.46%
- Cc1nc([C@@H]2C[C@@H]3CCN(C(=O)c4ccnnc4)C[C@H]3O2)sc1C — higher, 5.38%
- Cn1cc2c(n1)C(CNC(=O)Cc1ccsc1)OCC2 (stereo not given) — lower, -6.77%
- CNC(=O)[C@@]12CCCN(c3ncccn3)[C@@H]1CN(C(=O)NC(C)C)C2 — higher, 34.2%
- O=C1NCC[C@]12CN(Cc1ccoc1)C[C@H]2c1ccccc1 — higher, 16.2%
- CNC(=O)C1Cn2ccnc2C2(CCN(CCF)CC2)O1 (stereo not given) — lower, -13.9%
- CC(C)CN1CCCC2(CCN(C(=O)c3cnccn3)C2)C1 (stereo not given) — lower, -14.6%
- COCC1CC2(CCN(C(=O)c3ccc(OC)c(Cl)c3)CC2)CO1 (stereo not given) — lower, -8.41%
- O=C(c1ccsc1)N1C[C@@H]2C[C@@H](c3nnc(C4CC4)o3)O[C@@H]2C1 — lower, -8.35%
- O=C(CCc1ccccc1)N1CCn2cc(Cn3cncn3)nc2C1 — lower, -11.8%
- CO[C@@H]1CC[C@H]2[C@H]1OCCN2C(=O)C1=CCCC1 — lower, -20.1%
- COc1ccc2c(c1)C1(CCN(Cc3ccncc3)CC1)N(C)CC2 — lower, -10.8%
- COCC1CC2(CCN(C(=O)c3cccc(C)c3)CC2)CO1 (stereo not given) — lower, -12.6%
- CCOc1ccc(S(=O)(=O)N(C)Cc2cnn(CC)c2)cc1 — lower, -2.15%
- Cc1c(Cl)c(C(=O)NCc2ccc(F)cc2)nn1C — lower, -5.73%
- O=C(CCn1nc(C(F)(F)F)c(Cl)c1C1CC1)NN1CCOCC1 — lower, -1.82%
- Cc1c(Cl)c(C(F)(F)F)nn1C(C)C(=O)NN1CCN(C)CC1 (stereo not given) — lower, -3.23%
- CCC(=O)c1ccccc1NN1c2ccccc2C(=O)C1(C)OC (stereo not given) — higher, 4.64%
- CN1CCCc2c1nc1c(c2N)CCC1 — lower, -7.63%
- CCn1c(=O)c2cc(S(N)(=O)=O)ccc2n(CC)c1=O — lower, -2.07%
- Fc1cccc(Cl)c1CNCc1ccccn1 — lower, -12.6%
- O=C(COCC(=O)N1CCCCCC1)NCc1cccc(Br)c1 — higher, 0.154%
- C/N=C1/c2cc3cc(OC)ccc3n2CCN1C — higher, -0.795%
- O=C1CC(N2CCN(c3ccccc3O)CC2)C(=O)N1Cc1cccs1 (stereo not given) — lower, -12.2%
- O=C(COCC(=O)N(c1ccccc1)c1ccccc1)N1CCCC1 — lower, -3.7%
- Cc1c(Br)cnn1C(C)C(=O)Nc1nncs1 (stereo not given) — lower, -14.2%
- CSc1ncn(-c2nc(N(C)C)nc(N(C)C)n2)n1 — higher, 36.4%
- CCc1ccc(NC(=O)Nc2c(O)oc3ccccc3c2=O)cc1 — lower, -9.4%
- CC(C)CNC(=O)CN(Cc1ccc(F)cc1)S(C)(=O)=O — lower, -5.67%
- CN(C)c1ccc(CC2CCN(c3cnccn3)CC2)nn1 — lower, -7.84%
- O=C(C1CCOCC1)N1CCOCC(Cc2ncccn2)C1 (stereo not given) — lower, -10.5%
- Cc1nc(C(=O)N2CCOC(Cc3ccccc3)C2)co1 (stereo not given) — higher, 23%
- CN(c1ccccc1)c1ccc(CC2CCCN(CCO)C2)nn1 (stereo not given) — higher, 30.2%
- Cc1nonc1CN(C)Cc1cnn(-c2ccc(F)cc2)c1 — higher, 0.663%
- Fc1ccc(F)c(CN2CCC(c3cnccn3)CC2)c1 — lower, -5.3%
- Nc1nccnc1CC1CCCN(Cc2c[nH]c3ccccc23)C1 (stereo not given) — lower, -9.09%
- Cc1c(C(=O)N[C@@H]2CC[C@@H](N3CCCC3)[C@@H]2O)[nH]c2ccc(F)cc12 — higher, 6.16%
- c1cc(CNc2ncc(-c3cnccn3)c(C3CC3)n2)ccn1 — lower, -2.59%
- Cc1cc(-c2ccc(=O)n(C3CCN(S(C)(=O)=O)CC3)n2)c(C)o1 — higher, 17.2%
- CC(C)OC(=O)[C@@H]1CCN(C(=O)c2ccccn2)[C@@H]1c1ccc(F)cc1 — lower, -6.08%
- O=C(O)[C@@H]1CCN(C(=O)c2ccccn2)[C@@H]1c1ccc(F)cc1 — lower, -7.21%
- O=C(O)[C@@H]1CCN(C(=O)Cc2ccccn2)[C@@H]1c1ccc(F)cc1 — lower, -7.95%
- c1cc(CNc2ncc(-c3cnccn3)c([C@@H]3CCCO3)n2)ccn1 — lower, -5.57%
- COc1ccc(-c2nccc(C3CCCN3C)n2)cc1 (stereo not given) — lower, -2.22%
- CN1CCC(c2cc(CCO)ncn2)C1 (stereo not given) — higher, 1.56%
- CN1CCCC1c1ccnc(-c2ccccc2)n1 (stereo not given) — lower, -2.81%
- CC(C)c1ncc(CN2CCCC2c2[nH]ncc2C(=O)N(C)C)cn1 (stereo not given) — lower, -5.06%
- O=C(CC1CCN(CCc2ccccc2)CC1)N1CCCOCC1 — lower, -1.73%
- CCN(CC)C(=O)CN1CCCC(c2nc(C)c3c(n2)N(C)CCC3)C1 (stereo not given) — higher, 0.707%
- CN1CCCC1c1ccnc(-c2ccccn2)n1 (stereo not given) — lower, -1.8%
- CN(C)c1nc(O)cc(C2CCN(C(=O)Cc3ccccn3)C2)n1 (stereo not given) — higher, 1.91%
- COc1ccccc1C1(O)CCCN(C(=O)c2cnc(SC)nc2)C1 (stereo not given) — lower, -3.73%
- CC(C)c1nc(O)c2nnn(C[C@H]3CCCN(Cc4cccs4)C3)c2n1 — higher, 32.6%
- CC(C)c1nc(O)c2nnn(C[C@@H]3CCCN(Cc4ccsc4)C3)c2n1 — lower, -2.22%
- CN(CCc1cn[nH]c1)C(=O)CCc1ccc(Cl)cc1 — higher, -0.186%
- COc1ccc(N2CCN(C(=O)OC(C)(C)C)C(C(=O)O)C2)cc1 (stereo not given) — higher, -0.702%
- Cc1nc(C2CCCN(C(C)C)C2)sc1Br (stereo not given) — lower, -4.14%
- NC1(CN2CCOCC2)CCCCC1 — lower, -2.02%
- CC(C)(C)OC(=O)N1CCN(c2ccc(F)cc2)CC1C(=O)O (stereo not given) — higher, -1.03%
- O=C(N[C@@H]1CC[C@@H](N2CCCC2)[C@@H]1O)c1cc2cccc(F)c2[nH]1 — lower, -9.84%
- Cc1n[nH]c(C)c1CCC(=O)N[C@@H]1CCC[C@@H](Oc2ccccc2)[C@@H]1O — higher, 21.6%
- Cc1noc(C)c1CCC(=O)N[C@@H]1CC[C@@H](Oc2cccnc2)[C@@H]1O — lower, -3.66%
- O=C(c1cc(C2CCCCC2)no1)N1C[C@H]2C[C@H](O)C[C@H]2C1 — lower, -4.06%
- Cc1noc(C2(C)CCCN(C(=O)C(C)C)C2)n1 (stereo not given) — higher, -0.687%
- Nc1ccc(CC2CCCN(Cc3c[nH]cn3)C2)nn1 (stereo not given) — lower, -2.3%
- CN(C)C(=O)C1(C)CN(Cc2cn(C)c3ccc(F)cc23)CCO1 (stereo not given) — higher, 9.86%
- COCCNC(=O)c1cc(C)nc(C2CCN(C)CC2)n1 — lower, -3.41%
- COc1ncc(CN2CCCC2c2[nH]ncc2C(=O)N(C)C)cn1 (stereo not given) — higher, 23.2%
- O=C(NCC1(O)COCCN(Cc2cccc(O)c2)C1)c1cnccn1 (stereo not given) — lower, -3.85%
- CNC(=O)CN1CCOC(c2cccc(N)n2)C1 (stereo not given) — lower, -1.41%
- CC(=O)NCc1nccnc1C1CCN(C(=O)c2cc[nH]n2)CC1 — lower, -6.68%
- Cc1nccc(N2CCCC(C)(c3[nH]ncc3C(N)=O)C2)n1 (stereo not given) — lower, -4.04%
- CN(C)c1cccc(C2CCN(c3ncccn3)CC2)n1 — lower, -3.49%
- COCCNC(=O)c1sc2ccccc2c1C1CCC(CN)CC1 (stereo not given) — lower, -1.66%
- Cc1nc(NCc2cccc(F)c2)cc(C2CCNCC2)n1 — higher, 0.802%
- CC(C)NC(=O)c1sc2ccccc2c1[C@H]1CC[C@H](CN)CC1 — higher, 38.7%
- CC1c2ncc(COc3cccnc3)n2CCN1C(=O)C1=CCCC1 (stereo not given) — lower, -9.18%
- O=C([C@H]1CCCO1)N1CCCC2(CCN(Cc3ccncc3)C2=O)C1 (stereo not given in full) — higher, 22.1%
- CN(C)S(=O)(=O)N1C[C@H](Oc2cccnc2)[C@H]2OCCC[C@H]21 — higher, 31.1%
- CNC(=O)[C@@]12CCO[C@@H]1CCN(Cc1scnc1C)C2 — higher, 4.42%
- Cn1ccnc1CN1CCC2(CC(=O)N(c3cccc(F)c3)C2)C1 (stereo not given) — lower, -4.42%
- COc1ccc(CN2CCn3cc(Cn4cccn4)nc3C2)cc1 — higher, 3.13%
- Cc1ccc(C(=O)N2CCn3cc(CN(C)Cc4ccco4)nc3C2)o1 — higher, 8.16%
- Cc1nc(CN2CCC3(CCN(c4ncc(F)cn4)C3)C2=O)cs1 (stereo not given) — higher, 4.85%
- CN(C)C(=O)N1C[C@H](Oc2ccccn2)[C@H]2OCCC[C@H]21 — lower, -7.83%
- Cc1cc(CN2CC[C@H]3OCC[C@@]3(C(=O)NC(C)C)C2)no1 — higher, 3.85%
- CNC(=O)[C@H]1C[C@H]2OCC[C@H]2N(Cc2cccc3ccccc23)C1 — lower, -6.96%
- Cc1ccoc1C(=O)N1C[C@H]2CCC[C@@]2(COCc2ccncc2)C1 — higher, 5.44%
- c1cnn(Cc2cn3c(n2)CN(Cc2nccs2)CC3)c1 — lower, -3.15%
- Cn1ccnc1CN1CCC2(CC1)CC(NC(=O)c1ccccn1)CO2 (stereo not given) — higher, 8.41%
- Cn1cccc1CN1CCC2(CCCN(C(=O)c3cnccn3)C2)C1 (stereo not given) — higher, 17%
- Cc1ccc(C(=O)N2CCO[C@H]3[C@@H](OCc4ccccn4)CC[C@@H]32)o1 — lower, -19.5%
- COCC1CN(C(=O)COc2ccccc2)Cc2cn(C)nc21 (stereo not given) — lower, -18%
- O=S(=O)(C1CC1)N1CC[C@]2(C[C@@H](Oc3ccccn3)CO2)C1 — lower, -18.9%
- COc1ncccc1CN1Cc2nnn(C)c2C(COCC2CC2)C1 (stereo not given) — higher, 1.61%
- Fc1cccc(N2CCCC3(C2)CN(c2ncccn2)CCO3)c1 (stereo not given) — higher, -0.813%
- COCCN1C[C@@H]2CN(Cc3cccc(F)c3)CCC[C@]2(C(=O)O)C1 — higher, 20.7%
- Cc1ccc(N2CC3(COCCN(Cc4cccnc4)C3)OCC2=O)s1 (stereo not given) — higher, 26.6%
- c1nc(CN2CCCC(Cc3ccc(NC4CCCC4)nn3)C2)c[nH]1 (stereo not given) — higher, 0.181%
